These results are taken from PubChem BioAssay (NCI).

Molecules are shown by their SMILES. Where “and” joins values, the source holds several entries; their conditions need not be identical. Identical values can stand only once.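 Where inhibition never reached the appropriate level, the endpoint shown equals the highest concentration tested. Otherwise, values were interpolated linearly from a five-concentration, 48-hour dose response in 96-well plates. At the GI50, growth is halved. At the TGI there is no net growth.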 Some results are limits rather than exact numbers.

Some test systems named below: A498 renal; CCRF-CEM leukemia; COLO 205 colon; HCT-116 colon; MOLT-4 leukemia; NCI-H226 lung; NCI-H522 lung; OVCAR-5 ovarian; RPMI-8226 leukemia; SNB-19 CNS; SW-620 colon; UACC-257 melanoma.
Common to all, as to assay: NCI anticancer screen, dose series, 48 h

As to `O=C1N(CN2CCOCC2)CN(CN2CCOCC2)C(=O)N1Cc1ccccc1`, the TGI is > 100 µM in the assay on A498 renal; 75.8 µM with CCRF-CEM leukemia; 36.1 µM in the assay with COLO 205 colon; 54.4 µM with HCT-116 colon; 39.3 µM in the assay on MOLT-4 leukemia; > 100 µM in the assay with NCI-H226 lung. For the same compound, the TGI is 29 µM with NCI-H522 lung; > 100 µM in the assay with OVCAR-5 ovarian; 60.3 µM in the assay on RPMI-8226 leukemia; > 100 µM in the assay with SNB-19 CNS; 54.9 µM in the assay with SW-620 colon; 48.6 µM with UACC-257 melanoma.
As for `Cc1nn(-c2ccccc2)c2c1C(c1cc3ccccc3nc1Cl)NC(=S)N2` (centres undefined), the TGI in the assay on A498 renal, in the assay on CCRF-CEM leukemia, with COLO 205 colon, in the assay on HCT-116 colon, in the assay with MOLT-4 leukemia and in the assay with NCI-H226 lung was > 100 µM each time. Moreover, the TGI with NCI-H522 lung is 69.5 µM; in the assay on OVCAR-5 ovarian, > 100 µM; with RPMI-8226 leukemia, 48.7 µM; in the assay with SNB-19 CNS it was > 100 µM; with SW-620 colon it was 98.4 µM; in the assay on UACC-257 melanoma, > 100 µM.
On to `CCOC(=O)NC(NNc1ccc([N+](=O)[O-])cc1[N+](=O)[O-])(C(F)(F)F)C(F)(F)F`, for which the TGI with A498 renal was 73 µM; in the assay on CCRF-CEM leukemia, 72.3 µM; with COLO 205 colon, 29.9 µM; in the assay on HCT-116 colon it was > 100 µM; in the assay with MOLT-4 leukemia it was > 100 µM; with NCI-H226 lung, > 100 µM. For the same compound, the TGI in the assay with NCI-H522 lung is 77 µM; in the assay on OVCAR-5 ovarian, > 100 µM; with RPMI-8226 leukemia, 47.4 µM; in the assay with SNB-19 CNS, > 100 µM; with SW-620 colon, > 100 µM; in the assay with UACC-257 melanoma, > 100 µM.
As to `O=Cc1[nH]c(=O)[nH]c(=O)c1CCl`, the TGI in the assay on A498 renal was > 100 µM; in the assay on CCRF-CEM leukemia, > 85.8 µM; with COLO 205 colon, > 100 µM; in the assay on HCT-116 colon it was > 100 µM; with MOLT-4 leukemia it was > 100 µM; in the assay with NCI-H226 lung, > 100 µM. Moreover, the TGI in the assay with NCI-H522 lung is > 100 µM; in the assay with OVCAR-5 ovarian, > 100 µM; in the assay with RPMI-8226 leukemia, > 72.1 µM; with SNB-19 CNS, > 100 µM; with SW-620 colon it was > 100 µM; with UACC-257 melanoma it was > 100 µM.
With `O=C(O)c1cncc(C(=O)O)c1`, the TGI in the assay with A498 renal, in the assay with CCRF-CEM leukemia, in the assay on COLO 205 colon, in the assay on HCT-116 colon, in the assay with MOLT-4 leukemia and with NCI-H226 lung was > 100 µM in each case. In addition, the TGI in the assay with NCI-H522 lung, in the assay on OVCAR-5 ovarian, in the assay with RPMI-8226 leukemia, with SNB-19 CNS, with SW-620 colon and in the assay on UACC-257 melanoma was > 100 µM in each case.
Regarding `CC(=O)N1C(C(=O)NNc2ccccc2)CSC1c1ccccc1` (centres undefined), the TGI with A498 renal, in the assay on CCRF-CEM leukemia, with COLO 205 colon, in the assay on HCT-116 colon, in the assay with MOLT-4 leukemia and with NCI-H226 lung was > 100 µM throughout. Also, the TGI in the assay on NCI-H522 lung, in the assay on OVCAR-5 ovarian, in the assay with RPMI-8226 leukemia, in the assay with SNB-19 CNS, with SW-620 colon and with UACC-257 melanoma was > 100 µM each time.
In the case of `C[N+](C)(C)Cc1c(CC#N)[nH]c2ccccc12`, the TGI with A498 renal, with CCRF-CEM leukemia, in the assay on COLO 205 colon, in the assay with HCT-116 colon, in the assay with MOLT-4 leukemia and with NCI-H226 lung was > 100 µM in each case. For the same compound, the TGI in the assay with NCI-H522 lung, with OVCAR-5 ovarian, with RPMI-8226 leukemia, in the assay on SNB-19 CNS, in the assay with SW-620 colon and in the assay on UACC-257 melanoma was > 100 µM each time.
With `O=c1[nH]c(=O)n(C2CC(O)C(CO)O2)cc1C#Cc1cc(C(F)(F)F)cc(C(F)(F)F)c1` (centres undefined), the TGI in the assay with A498 renal is > 100 µM; with CCRF-CEM leukemia, > 100 µM; in the assay with COLO 205 colon it was > 42.7 µM; in the assay with HCT-116 colon it was > 100 µM; with MOLT-4 leukemia it was > 100 µM; in the assay on NCI-H226 lung, > 100 µM. The TGI is > 81.5 µM with NCI-H522 lung; > 100 µM with OVCAR-5 ovarian; > 100 µM with RPMI-8226 leukemia; > 100 µM in the assay on SNB-19 CNS; > 100 µM with SW-620 colon; > 100 µM in the assay with UACC-257 melanoma.
Consider `CCCN1CN(c2ccccc2)C2(CCN(CCCC(=O)c3ccc(F)cc3)CC2)C1=O`, for which the TGI in the assay with A498 renal was determined as 5.67 µM; in the assay with CCRF-CEM leukemia, 5.16 µM; with COLO 205 colon it was 0.348 µM; in the assay on HCT-116 colon, 8.75 µM; in the assay on MOLT-4 leukemia, 15.5 µM; in the assay with NCI-H226 lung it was 22.3 µM. For the same compound, the TGI with NCI-H522 lung turned out to be 43.6 µM; in the assay on OVCAR-5 ovarian it was 20.2 µM; with RPMI-8226 leukemia, 42.2 µM; in the assay on SNB-19 CNS, 34.7 µM; with SW-620 colon, 20.4 µM; in the assay on UACC-257 melanoma it was 6.09 µM.
`C=C(CN(C)C)C(=O)c1cc(C)ccc1C`: the TGI in the assay with A498 renal amounted to 43.5 µM; in the assay on CCRF-CEM leukemia, 1.37 µM; in the assay on COLO 205 colon, 3.53 µM; with HCT-116 colon, 17.4 µM; in the assay with MOLT-4 leukemia, 3.86 µM; in the assay on NCI-H226 lung, 27.8 µM. Further, the TGI in the assay with NCI-H522 lung was found to be 1.52 µM; in the assay with OVCAR-5 ovarian, 31.2 µM; in the assay with RPMI-8226 leukemia it was 5.34 µM; with SNB-19 CNS, 39.2 µM; in the assay with SW-620 colon it was 5.96 µM; with UACC-257 melanoma it was 26 µM.
As to `Cc1nc(N)c(N2CCN(Cc3ccccc3)CC2)c(=O)[nH]1`, the TGI with A498 renal, in the assay on CCRF-CEM leukemia, in the assay with COLO 205 colon, in the assay on HCT-116 colon, in the assay on MOLT-4 leukemia and in the assay on NCI-H226 lung was > 100 µM in each case. The TGI in the assay on NCI-H522 lung, in the assay with OVCAR-5 ovarian, in the assay with RPMI-8226 leukemia, with SNB-19 CNS, with SW-620 colon and in the assay with UACC-257 melanoma was > 100 µM each time.
Consider `COc1cc(/C=C/c2sc3ccccc3[n+]2C)ccc1N(C)C`, for which the TGI in the assay on A498 renal is > 100 µM; in the assay on CCRF-CEM leukemia, 13.9 µM; with COLO 205 colon it was 2.76 µM and 2.86 µM; in the assay on HCT-116 colon, 17.9 µM; with MOLT-4 leukemia, 30 µM; in the assay with NCI-H226 lung it was 50.6 µM. The TGI in the assay with NCI-H522 lung is 15.8 µM; in the assay on OVCAR-5 ovarian, 40.5 µM; in the assay on RPMI-8226 leukemia, 16.2 µM; with SNB-19 CNS, 26.8 µM; in the assay with SW-620 colon, 25.8 µM; with UACC-257 melanoma, 22.9 µM. Besides, the GI50 is 3.76 µM in the assay with CCRF-CEM leukemia; 6.05 µM in the assay on HCT-116 colon; 8.06 µM in the assay on MOLT-4 leukemia; 0.467 µM in the assay with NCI-H522 lung; 3.15 µM with RPMI-8226 leukemia; 8.32 µM with UACC-257 melanoma.
As for `O=C(O)CSc1nnc(CCCCCCCCc2nnc(SCC(=O)O)o2)o1`, the TGI in the assay with A498 renal, with CCRF-CEM leukemia, in the assay with COLO 205 colon, with HCT-116 colon, in the assay with MOLT-4 leukemia and in the assay with NCI-H226 lung was > 100 µM each time. Also, the TGI with NCI-H522 lung, in the assay with OVCAR-5 ovarian, with RPMI-8226 leukemia, in the assay on SNB-19 CNS, with SW-620 colon and in the assay with UACC-257 melanoma was > 100 µM in each case.
For the compound `COCC(=O)OC1CCn2c1nc1c2C(=O)C(C)=C(NC(C)=O)C1=N` (centres undefined), the TGI in the assay with A498 renal amounted to 32.9 µM; in the assay with CCRF-CEM leukemia, 8.27 µM; in the assay with COLO 205 colon it was 37.3 µM; in the assay with HCT-116 colon it was 11.4 µM; with MOLT-4 leukemia, 5.2 µM; in the assay on NCI-H226 lung, 33.2 µM. Moreover, the TGI came out at 21.5 µM in the assay with NCI-H522 lung; 25.3 µM in the assay with OVCAR-5 ovarian; 6.79 µM in the assay with RPMI-8226 leukemia; 38.1 µM with SNB-19 CNS; 6.12 µM in the assay on SW-620 colon; 8.23 µM with UACC-257 melanoma.
